Values quoted from earlier work in patent publication US12194111B2, “Alpha emitter compositions and methods” (Nant Holdings IP, LLC, priority 2018, dated 2025).

Test system: relapsed or refractory soft tissue sarcoma
Settings: clinical trial; treatment of relapsed or refractory soft tissue sarcoma

SMILES: COc1cccc2c1C(=O)c1c(O)c3c(c(O)c1C2=O)C[C@@](O)(/C(CO)=N/NC(=O)CCCCCN1C(=O)C=CC1=O)C[C@@H]3O[C@H]1C[C@H](N)[C@H](O)[C@H](C)O1 [aldoxorubicin]
- progression free disease: did not show a significant increase in progression free disease
